Experimental data taken from patent publication US12187758B2 (ROME Therapeutics, Inc., priority 2022, dated 2025).

Tests used:
Type in all cases: cell-based
THP1-Dual KO-TREX1 cells = experiment: THP1 TREX1 KO inhibition assay (type 1 interferon response); conditions: Homo sapiens, 144 h, type 1 interferon (QUANTI-LUC), 1 μM 5-aza-2′-deoxycytidine, six days
Procedure, shortened: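 THP1-Dual KO-TREX1 cells were treated with a dose titration of compound, alone or with 1 μM 5-aza-2′-deoxycytidine, for six days at 37 °C. Type 1 interferon was read as secreted luciferase (QUANTI-LUC) in the supernatant, and viability by CellTiter-Glo luminescence.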

[1] = Mitochondria toxicity assay with PC3 cells, in-cell ELISA COX-1; conditions: 5 days treatment
Procedure, shortened: (§1)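 This in-cell ELISA was run on fixed, permeabilized PC3 cells after 5-day exposure to titrated compound, with cytotoxicity measured on a duplicate plate. Results are reported as categories A (<1.0 μM) to E (>100.0 μM).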

[2] = test system: SDH-A (succinate dehydrogenase-A); experiment: Mitochondria toxicity assay with PC3 cells, in-cell ELISA SDH-A; conditions: 5 days treatment
Procedure, shortened: as §1

PC3 cells = experiment: Mitochondria toxicity assay with PC3 cells, cytotoxicity (Cell Titer Glo); conditions: Homo sapiens, PC-3, 120 h, 5 days treatment
Procedure, shortened: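 PC3 cells in F-12K with 10% FBS exposed to a compound dose titration for 5 days at 37° C, 5% CO2. Viability by Cell Titer Glo luminescence after 30 min at room temperature; values binned A (<1.0 μM) to E (>100.0 μM).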

SMILES | IC50 (THP1-Dual KO-TREX1 cells) | IC50 [1] | IC50 [2] | IC50 (PC3 cells)
Nc1nc(=O)n([C@H]2C[C@H](O)[C@](CO)(C3CC3)O2)cc1F [Compound 120, 4-amino-1-[(2R,4S,5R)-5-cyclopropyl-4-hydroxy-5-(hydroxymethyl)oxolan-2-yl]-5-fluoropyrimidin-2-one] | > 1 µM | > 100 µM | > 100 µM | > 100 µM
Nc1ccn([C@@H]2O[C@@](CO)(C3CC3)[C@@H](O)[C@@H]2F)c(=O)n1 [Compound 121, 4-amino-1-[(2R,3S,4R,5R)-5-cyclopropyl-3-fluoro-4-hydroxy-5-(hydroxymethyl)oxolan-2-yl] pyrimidin-2-one] | > 1 µM | > 100 µM | > 100 µM | > 100 µM
Nc1nc(=O)n([C@@H]2O[C@@](CO)(C3CC3)[C@@H](O)[C@@H]2F)cc1F [Compound 122, 4-amino-1-[(2R,3S,4R,5R)-5-cyclopropyl-3-fluoro-4-hydroxy-5-(hydroxymethyl)oxolan-2-yl]-5-fluoropyrimidin-2-one] | > 1 µM | > 100 µM | > 100 µM | > 100 µM
Nc1nc(=O)n([C@@H]2O[C@](/C=C\F)(CO)[C@@H](O)[C@@H]2F)cc1F [Compound 123, 4-amino-5-fluoro-1-((2R,3S,4R,5R)-3-fluoro-5-((Z)-2-fluorovinyl)-4-hydroxy-5-(hydroxymethyl)tetrahydrofuran-2-yl)pyrimidin-2(1H)-one] | > 1 µM | > 100 µM | > 100 µM | > 100 µM
Nc1nc(=O)n([C@@H]2O[C@](/C=C/Cl)(CO)[C@@H](O)[C@@H]2F)cc1F [Compound 131, 4-amino-1-[(2R,3S,4R,5R)-5(E)-(2-chloroethenyl)-3-fluoro-4-hydroxy-5-(hydroxymethyl)oxolan-2-yl]-5-fluoropyrimidin-2-one] | > 1 µM | > 100 µM | > 100 µM | > 100 µM
Nc1nc(=O)n([C@@H]2O[C@@](CO)(CCl)[C@@H](O)[C@@H]2Cl)cc1F [Compound 137, 4-amino-1-[(2R,3S,4R,5R)-3-chloro-5-(chloromethyl)-4-hydroxy-5-(hydroxymethyl)oxolan-2-yl]-5-fluoropyrimidin-2-one] | > 1 µM | > 100 µM | > 100 µM | > 100 µM
C=C=C[C@]1(CO)O[C@@H](n2cnc3c(N)nc(F)nc32)C[C@@H]1O [Compound 164, (2R,3S,5R)-5-(6-amino-2-fluoropurin-9-yl)-2-(hydroxymethyl)-2-(propa-1,2-dien-1-yl) oxolan-3-ol] | > 1 µM | > 100 µM | > 100 µM | > 100 µM

Second part, led by results:

IC50 (THP1-Dual KO-TREX1 cells) | SMILES | IC50 [1] | IC50 [2] | IC50 (PC3 cells)
> 1 µM | Nc1ccn([C@@H]2O[C@@](CO)(CF)[C@@H](O)[C@@H]2F)c(=O)n1 [Compound 113, 4-amino-1-((2R,3S,4R,5R)-3-fluoro-5-(fluoromethyl)-4-hydroxy-5-(hydroxymethyl)-tetrahydrofuran-2-yl)pyrimidin-2(1H)-one] | < 1 µM | < 1 µM | < 1 µM
> 1 µM | Nc1ccn([C@@H]2O[C@@](CO)(CCl)[C@@H](O)[C@@H]2O)c(=O)n1 [Compound 114, 4-amino-1-((2R,3S,4S,5R)-5-(chloromethyl)-3,4-dihydroxy-5-(hydroxymethyl)tetrahydro-furan-2-yl)pyrimidin-2(1H)-one] | > 100 µM | > 100 µM | > 100 µM
> 1 µM | CC[C@]1(CO)O[C@@H](n2cnc3c(=O)[nH]c(N)nc32)C[C@@H]1O [Compound 115, 2-amino-9-((2R,4S,5R)-5-ethyl-4-hydroxy-5-(hydroxymethyl)tetrahydro-furan-2-yl)-1,9-dihydro-6H-purin-6-one] | 1 to 10 µM | 1 to 10 µM | 1 to 10 µM
> 1 µM | Nc1ccn([C@@H]2O[C@@](CO)(CCl)[C@@H](O)C2(F)F)c(=O)n1 [Compound 119, 4-amino-1-((2R,4R,5R)-5-(chloromethyl)-3,3-difluoro-4-hydroxy-5-(hydroxymethyl)tetrahydrofuran-2-yl)pyrimidin-2(1H)-one] | 1 to 10 µM | 1 to 10 µM | 1 to 10 µM
